Patent US8389739B1, “Modulators of retinoid-related orphan receptor gamma” (Orphagen Pharmaceuticals, priority 2006, dated 2013)
“Also recorded” adds a separate entry of the source. Where two headings read alike, the source gives them in different places.

Tests used:
[1] = target: T1, human RORγ (Homo sapiens, UniProt P51449); assay: Transcriptional assay of human RORγ (Gal4-hRORγ); format: cell-based; conditions: Table 4B
T1 construct: expressed in transfected cells; host or cells: CHO cells, transient transfection
T1 sequence (P51449 253-518): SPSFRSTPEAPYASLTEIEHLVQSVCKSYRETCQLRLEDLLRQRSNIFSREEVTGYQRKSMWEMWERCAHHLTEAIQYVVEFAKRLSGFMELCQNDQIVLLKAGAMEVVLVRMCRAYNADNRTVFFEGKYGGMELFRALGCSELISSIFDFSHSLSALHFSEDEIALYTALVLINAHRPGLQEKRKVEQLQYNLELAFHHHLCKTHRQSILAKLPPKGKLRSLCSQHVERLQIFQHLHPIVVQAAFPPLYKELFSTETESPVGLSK
Description: The complete Gal4-hRORγ nucleotide sequence is shown below:
A firefly luciferase reporter gene for Gal4 DBD hybrid receptors, such as Gal4-RORγ, contains five copies of the Gal4 17-mer response element in its promoter and the coding sequence for firefly luciferase (pG5-luc, Promega). CHO (Chinese Hamster Ovary) cells were cultured in Ham's F12 medium supplemented with 10% fetal calf serum (Gemini Biologicals), 10 μg/ml penicillin and streptomycin, and were maintained in a humidified 37° C. incubator (Thermo Electron, Steri-Cycle) with 5% CO2. 24 hours before transfection, cells were plated in T175 flasks (5×10^6 cells/flask) or T75 flasks (1.7×10^6 cells/flask). Transient transfection of CHO cells was performed using TransIT-CHO reagents (Minis, Madison, Wis.) with a mixing ratio of 2:6:1 between plasmid DNA (in μg), TransIT-CHO (in μl) and CHO-mojo (in μl).
Plates are maintained at 37° C. in a humidified atmosphere with 7% CO2 overnight. Four (4) hours after cell seeding, compounds dissolved in DMSO at 10 mM were added to cells at final concentrations of 20 micromolar (μM) to 20 nanomolar (nM) in 0.2% DMSO in triplicate plates. Approximately 40 hours later, cytotoxicity in the assay well was characterized by addition of the dye resazurin (O'Brien, Wilson et al. 2000) to a final concentration of 3 μM. […] Percent viability was determined as 2 hour fluorescence, minus background at t=0 hours, normalized to DMSO controls. For detection of luciferase activity, media was removed from plates after the measurement of resazurin conversion, and SteadyLite luciferase reagent (Perkin-Elmer) was added (30 μl/well). Luminescence is detected with a Victor 2-V plate reader (Perkin-Elmer) and normalized to luciferase activity of DMSO control wells alone.

[2] = target: T2, hPR (progesterone receptor) (Homo sapiens, UniProt P06401); assay: Crossreactive receptor transcriptional assay (Gal4 hybrid); format: cell-based
T2 construct: 687-933; expressed in transfected cells; host or cells: CHO cells, transient transfection
T2 sequence (P06401 687-933): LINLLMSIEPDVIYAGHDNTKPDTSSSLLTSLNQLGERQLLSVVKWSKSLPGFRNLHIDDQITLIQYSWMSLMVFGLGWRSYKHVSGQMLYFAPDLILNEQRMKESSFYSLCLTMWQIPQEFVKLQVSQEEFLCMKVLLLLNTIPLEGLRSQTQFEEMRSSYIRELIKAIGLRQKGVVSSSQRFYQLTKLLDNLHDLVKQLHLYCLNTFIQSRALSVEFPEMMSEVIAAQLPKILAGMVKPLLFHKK

[3] = tested on: TH-17 cell differentiation from naïve CD4+ T cells; assay: Differentiation of naïve CD4+ T cells, intracellular IL-17/IFN-γ staining by FACS (TH-17 protocol, TGFβ + IL-6); format: cell-based, mouse; conditions: for Cell Frequency (%) Th-17 Differentiation IFN-γ^+ / Cell Frequency (%) Th-17 Differentiation IL-17^+: Table 11, 3 μM; for Cell Frequency (%) Th-17 Differentiation IFN-γ^+: DMSO vehicle 1.03%; for Cell Frequency (%) Th-17 Differentiation IL-17^+: DMSO vehicle 3.81%
[4] = tested on: human IL-17 release from PBMCs; assay: Human IL-17 release from Con A stimulated PBMCs (ELISA); format: cell-based; conditions: 1 μg/ml Con A, 3 days; for Con A stimulated IL-17 release into culture medium: 3 μM; for reversal of antagonist effect on IL-17 release by agonist: 3 μM each
Excerpt: We also investigated whether human IL-17 is subject to regulation by RORγ ligands.

[5] = tested on: CHO cells; assay: Cytotoxicity in CHO cells (resazurin conversion); format: cell-based, Chinese Hamster
Description: Four hours after transfection, cells were dislodged with trypsin and seeded into a 384-well plate at 8,000 cells/well using a Titertek Multidrop 384. Edge effects within the 384-well plate were minimized by leaving plates at room temperature for 30 min so that cells plated evenly within each well (Lundholt, Scudder et al. 2003). Plates are maintained at 37° C. in a humidified atmosphere with 7% CO2 overnight. […] Approximately 40 hours later, cytotoxicity in the assay well was characterized by addition of the dye resazurin (O'Brien, Wilson et al. 2000) to a final concentration of 3 μM. After incubation for 2 hours at 37 degrees centigrade, the conversion of resazurin to resorufin was measured by fluorescence (excitation at 570 nm and emission at 615 nm). […] Percent viability was determined as 2 hour fluorescence, minus background at t=0 hours, normalized to DMSO controls. For detection of luciferase activity, media was removed from plates after the measurement of resazurin conversion, and SteadyLite luciferase reagent (Perkin-Elmer) was added (30 μl/well). Luminescence is detected with a Victor 2-V plate reader (Perkin-Elmer) and normalized to luciferase activity of DMSO control wells alone.

[6] = tested on: TH1 cell differentiation from naïve CD4+ T cells; assay: Differentiation of naïve CD4+ T cells with IL-12 (Th-1 protocol), IFN-γ staining by FACS; format: cell-based, mouse; conditions: for effect on TH1 cell differentiation: in the presence of IL-12
[7] = tested on: IL-22 release in lymph node cultures; assay: Lymph node cell cultures from MOG-immunized C57BL/6 mice, IL-22 ELISA; format: cell-based
Description: FIGS. 15A-B. IL-22 release in lymph node cultures is regulated by RORγ ligands. Lymph node cells from MOG-immunized C57BL/6 mice were cultured for 3 days with 30 μg/ml MOG, […] IL-23 (FIG. 15A) and 3 μM compounds (FIG. 15B). Culture media were analyzed by IL-22 ELISA.
ELISA kits for mouse IL-17 and human IL-17 were from eBioscience (San Diego, Calif.). ELISA assays were performed following the manufacturer's protocol. Certain samples were diluted 20-fold to avoid maximization of enzymatic signals. For mouse IL-22 ELISA, antibodies and standards were from Antigenix America (Huntington Station, N.Y.) and accessory components were from eBioscience. The IL-22 assay protocol was similar to that of the IL-17 assays.
The proinflammatory cytokine IL-22 is also expressed in Th-17 cells. […] In addition, IL-22 seems to have 30-50 fold higher levels than IL-17. […] This is illustrated in FIG. 15.

[8] = Table 6, read-out: Potency (EC50) at hPR
[9] = Table 9, 3 μM (combination 3 μM each), 4 ng/ml TGFβ and 20 ng/ml IL-6, DMSO 2.32%
[10] = Table 9, 3 μM (combination 3 μM each), DMSO 1.60%
[11] = Table 9, 3 μM (combination 3 μM each), 10 ng/ml IL-12, DMSO 36.3%

`CC(=O)O[C@H]1CC[C@@]2(C)C(CC[C@]3(C)C2C(=O)C=C2C4[C@@H](C)[C@H](C)CC[C@]4(C(=O)O)CC[C@]23C)C1(C)C` (stereo in doubt) [OR-13571, 10-Acetoxy-1,2,6a,6b,9,9,12a-heptamethyl-13-oxo-1,3,4,5,6,6a,6b,7,8,8a,9,10,11,12,12a,12b,13,14b-octadecahydro-2H-picene-4a-carboxylic acid] was tested, and the EC50 [1] was 0.2 µM, the EC50 [2, 8] was greater than 10 µM and the “effect on TH-17 cell differentiation” value [3] was “exerted a similar effect on TH-17 differentiation as OR-885 and OR-1050; also recorded: inhibits TH-17 differentiation”. The “Cell Frequency (%) Th-17 Differentiation IFN-γ^+” value [3] was 0.93%, the “Cell Frequency (%) Th-17 Differentiation IL-17^+” value [3] was 1.42% and the “Con A stimulated IL-17 release into culture medium” value [4] was “inhibited”.

With `O=S(=O)(c1ccccc1)N(CC(F)(F)F)c1ccc(C(O)(C(F)(F)F)C(F)(F)F)cc1` [Compound T0901317, N-(2,2,2-Trifluoro-ethyl)-N-[4-(2,2,2-trifluoro-1-hydroxy-1-trifluoromethyl-ethyl)-phenyl]-benzenesulfonamide, reference compound] the EC50 [2, 8] was greater than 10 µM and the “concentration not cytotoxic to CHO cells” value [5] was less than 10 µM.

With `C[C@@H]1CC[C@@]2(OC1)O[C@H]1C[C@H]3[C@@H]4CC[C@H]5C[C@@H](O)CC[C@]5(C)[C@H]4C[C@@H](O)[C@]3(C)[C@H]1[C@@H]2C` [OR-885, 5α,20α, 22α, 25D-SPIROSTAN-3β, 12β-DIOL] the EC50 [1] was 5.1 µM, the “EC50 (μM), transcriptional assay of human RORγ” value [1] was “significantly less potent at hRORγ” and the EC50 [2] was greater than 10 µM. The “Cell Frequency (%) TH-17 Protocol IFN-γ^+” value [3] was 1.45%, the “Cell Frequency (%) TH-17 Protocol IL-17^+” value [3] was 0.52% and the “effect on TH-17 cell differentiation” value [3] was “blocks the differentiation of TH-17 cells”. The “Cell Frequency (%) Th-1 Protocol IFN-γ^+” value ([6]; Table 10, 3 μM, DMSO vehicle 29.7%) was 34.2%, the “IL-22 production in LN cultures” value [7] was “inhibited” and the “reversal of antagonist effect on IL-17 release by agonist” value [4] was “partially reversible by OR-12872”.

In the case of `CCN(c1ccc(C(O)(C(F)(F)F)C(F)(F)F)cc1)S(=O)(=O)c1ccc([N+](=O)[O-])cc1` [OR-1050, N-Ethyl-4-nitro-N-[4-(2,2,2-trifluoro-1-hydroxy-1-trifluoromethyl-ethyl)-phenyl]-benzenesulfonamide], the EC50 [1] is reported as 0.4 µM, the EC50 [2, 8] is reported as greater than 10 µM and the “concentration not cytotoxic to CHO cells” value [5] is reported as 50 µM. For the same molecule, the “effect on TH-17 cell differentiation” value [3] was “significantly inhibited TH-17 cell differentiation in a dose-dependent manner; also recorded: decreases the proportion of IL-17^+ cells”, the “Cell Frequency (%) TH-17 Protocol IL-17^+” value [3, 9] was 0.44% and the “Cell Frequency (%) TH-17 Protocol IFN-γ^+” value [3, 10] was 1.42%. The “Cell Frequency (%) Th-17 Differentiation IFN-γ^+” value [3] was 1.09%, the “Cell Frequency (%) Th-17 Differentiation IL-17^+” value [3] was 1.47% and the “Cell Frequency (%) Th-1 Protocol IFN-γ^+” value [6, 11] was 37.4%. For the same molecule, the “effect on TH1 cell differentiation” value ([6]; 3 μM) was “does not inhibit TH1 differentiation”, the “IL-22 production in LN cultures” value ([7]; 3 μM each (FIG. 15)) was “inhibited” and the “Con A stimulated IL-17 release into culture medium” value [4] was “inhibited”.

Molecule `COc1c(C=NNc2nc(N3CCCCC3)nc(N3CCCCC3)n2)cccc1[N+](=O)[O-]` [OR-2161, N-(4,6-Di-piperidin-1-yl-[1,3,5]triazin-2-yl)-N′-(2-methoxy-3-nitro-benzylidene)-hydrazine] has an EC50 [1] of 1 µM and an EC50 [2, 8] greater than 10 µM.

`COC(C)CCC(C)C1CCC2C3CC(O)C4CC(O)CCC4(C)C3CCC12C` (centres unmarked) [OR-12872, 17-(4-Methoxy-1-methyl-pentyl)-10,13-dimethyl-hexadecahydro-cyclopenta[a]phenanthrene-3,6-diol] was tested, and the EC50 [2, 8] was greater than 10 µM, the “effect on TH-17 cell differentiation” value [3] was “stimulatory; also recorded: able to reverse the effect of OR-1050; also recorded: increases the fraction of IL-17^+ cells” and the “elevation of TH-17 frequency by agonist alone” value ([3]; 3 μM (FIG. 8)) was 60%. The “increase of TH-17 frequency from the lower baseline produced by OR-1050” value ([3]; 3 μM agonist in the presence of 3 μM OR-1050 (FIG. 8)) was 400%, the “Cell Frequency (%) TH-17 Protocol IL-17^+” value [3, 9] was 3.91% and the “Cell Frequency (%) TH-17 Protocol IFN-γ^+” value [3, 10] was 1.37%. The “Cell Frequency (%) TH-17 Protocol IFN-γ^+” value ([3]; Table 10, 1 μM, DMSO vehicle 0.71%) was 0.65%, the “Cell Frequency (%) TH-17 Protocol IL-17^+” value ([3]; Table 10, 1 μM, DMSO vehicle 2.46%) was 3.96% and the “Cell Frequency (%) Th-1 Protocol IFN-γ^+” value [6, 11] was 41.4%. For the same molecule, the “Cell Frequency (%) Th-1 Protocol IFN-γ^+” value ([6]; Table 10, 1 μM, DMSO vehicle 29.7%) was 30.8%, the “effect on TH1 cell differentiation” value ([6]; 3 μM) was “Neither 3 μM OR-1050 nor 3 μM OR-12872 had an effect on the frequency of TH1 cell differentiation” and the “IL-22 production in LN cultures” value ([7]; 3 μM each (FIG. 15)) was “enhanced”. For the same molecule, the “reversal of antagonist effect on IL-17 release by agonist” value [4] was “partly reverse the effects of OR-1050 and OR-13571” and the “Con A stimulated IL-17 release into culture medium” value [4] was “does not significantly alter IL-17 release”.

In the case of `CCn1c(CNc2ccc(Cl)cc2)nnc1SCC(=O)Nc1cccc2ccccc12` [OR-133008, 2-{5-[(4-Chloro-phenylamino)-methyl]-4-ethyl-4H-[1,2,4]triazol-3-ylsulfanyl}-N-naphthalen-1-yl-acetamide], the EC50 [1] is reported as 6.8 µM and the EC50 [2, 8] is reported as greater than 10 µM.
